In patent publication US20260248773A1, “POTASSIUM CHANNEL BLOCKERS OR DERIVATIVES THEREOF FOR PREVENTING, ALLEVIATING, AND/OR TREATING TISSUE DYSFUNCTION CAUSED BY TOXIC INSULTS” (priority 2022, published 2026):
Values joined by “and” are separate entries in the source; they are usually repeats but may differ in a detail not shown here. Equal entries are not always repeated. Where two headings read alike, the source gives them in different places.

Legend:
[1] = system: PTX-induced CIPN; assay: Repetitive PTX exposure, concurrent low-dose 4-AP weeks 1-12: function and nerve ultrastructure (Examples 3 and 4); type: in vivo, mice
Description: To determine whether 4-AP also conferred protection against developing CIPN when animals were repetitively exposed to PTX, 16 week old C7BL/6 female mice were given four cycles of PTX treatment at doses of 35 mg/kg PTX (i.p.). Animals were separated into control (saline, i.p.) or treatment group treated with a dose of 4AP 25% of that used in Examples 1 and 2 (i.e., 0.5 mg/kg 4-AP daily, i.p.).
To determine whether 4-AP prevented chemotherapy-induced structural damage even when chemotherapy was applied multiple times, ultrastructural analyses of tissue from mice treated with 35 mg/kg PTX, every 3 weeks, for 4 cycles of treatment was conducted. A low dose of 4-AP that was only 25% of the dose used in Examples 1 and 2 was used, which was applied at 0.5 mg/kg daily instead of 2 mg/kg daily.

[2] = system: PTX-induced CIPN; assay: Repetitive PTX exposure, delayed 4-AP from week 6 (Example 5); type: in vivo, mice; conditions: four cycles 35 mg/kg PTX
Description: To examine this question, 16 week old C7BL/6 female mice were given four cycles of PTX treatment at doses of 35 mg/kg PTX (i.p.). Animals were separated into control (saline, i.p.) or treatment group treated with a dose of 4AP 25% of that used in FIGS. 1 and 2 (i.e., 0.5 mg/kg 4-AP daily, i.p., with treatment initiated 6 weeks after the first PTX treatment and when CIPN-related changes were already apparent).

[3] = system: E0771 murine breast cancer cell line; assay: 4-AP co-applied with paclitaxel to cancer cells in vitro (Example 10); type: cell-based
Description: To investigate the effects of 4-AP treatment on cancer cells, 4-AP was co-applied with either paclitaxel or cisplatin in dose response curves extending over a >20-fold range to the widely studied E0771 murine breast cancer cell line and the A549 human lung cancer cell line. Cells were exposed to paclitaxel or cisplatin for 5 days in the presence or absence of 1 mM 4-AP. This concentration of 4-AP is typically used for in vitro studies, and greatly exceeds achievable concentrations in vivo. This higher dose would increase the likelihood of detecting protective activity.

[4] = Circulating 4-AP levels by HPLC (Example 11); type: in vivo, mice; conditions: for Circulating 4-AP levels, Amount / concentration at 1 h: 1 hour after i.p. injection, individual mice; for concentration at 1 h: mouse, blood, ip, 1 /g/kg, read-out: Circulating 4-AP levels, Amount
Description: 4-AP was injected i.p. at the indicated time points after the beginning of treatment. Mice received PTX on day 0 of the experiment, and half of those mice also were injected with 4-AP at this time, and every day thereafter, at a dosage of 1/g/kg. Blood samples were drawn 3 and 7 days after the beginning of the experiment and were taken 1 hour after the injection of 4-AP. Circulating levels of 4-AP were determined by HPLC analysis.

[5] = system: Guillain-Barré Syndrome; conditions: cited from earlier work
[6] = system: CIS-induced CIPN; type: in vivo, mice; conditions: 4-AP 1 mg/kg daily for next six weeks
Description: In these experiments, 16-week-old C7BL/6 female mice were treated with CIS (2.5 mg/kg, once weekly, i.p.) for eight weeks. Animals were then treated with 4-AP (1 mg/kg daily) for the next six weeks (n=4).

[7] = system: PTX-induced CIPN; assay: Four PTX injections, concurrent 4-AP (Example 2); type: in vivo, mice; conditions: 4-AP 1 mg/kg daily concurrent
Description: A subset of animals concurrently received 4-AP (1 mg/kg, daily), which was started at the same as the initial PTX treatment and continued throughout. Functional outcome responses were recorded at three-week intervals throughout the study period, and included von Frey monofilament testing, cold plate thermal sensitivity, CatWalk™ gait analysis, and nerve conduction testing. All animals had functionally demonstrable peripheral neuropathy at six weeks.

[8] = system: glial fibrillary acidic protein (GFAP); assay: GFAP immunofluorescence in corpus callosum after PTX with or without 4-AP (Example 9); type: in vivo; conditions: E0771 tumor-bearing mice; PTX 35 mg/kg day one; 4-AP daily
Description: To determine whether 4-AP treatment can prevent PTX-induced increases in a reactive inflammatory response in the brain, as detected by increased expression of glial fibrillary acidic protein (GFAP), 16-week-old female C57BL/6 mice were inoculated with a triple negative murine breast cancer cell line E0771. When tumors were palpable, the mice were injected with either paclitaxel and water, 4-AP, both, or saline as a control. Paclitaxel (35 mg/kg) was injected on day one and 4-AP and water were injected daily. The mice were sacrificed on day nine and their brains were perfused and harvested. Brains were cryosectioned coronally.
The mouse brain sections were stained with anti-GFAP antibodies, followed by a fluorescent secondary, for analysis via immunofluorescence.

[9] = four cycles 35 mg/kg PTX, 0.5 mg/kg 4-AP daily
[10] = four cycles 35 mg/kg PTX, 0.5 mg/kg 4-AP daily i.p.
[11] = 0.5 mg/kg 4-AP daily started at week 6
[12] = mice treated with 4-AP only, 3 days post
[13] = mice treated with PTX + 4-AP, 7 day 1st draw

SMILES: Nc1ccncc1 [4-AP, 4-aminopyridine]
- G ratio (axon:myelin area) [1, 9]: better myelinated than the control (PTX+Saline) group
- axon circularity [1, 9]: more regularly structured than the control group
- frequency of degenerating myelin profiles [1, 9]: decreased frequency of degenerating myelin profiles
- gait abnormalities, Catwalk analyses [1, 10]: ameliorated PTX-induced gait abnormalities
- jumping behavior, cold-plate stimulus [1, 10]: highly significant at Weeks 6, 9 and 12
- nerve conduction (latency, amplitude, velocity) [1, 10]: ameliorated PTX-induced abnormalities in nerve conduction
- pawlifts, cold-plate stimulus [1, 10]: trended significant at Weeks 6 and 9 and were highly significant at Week 12
- mechanical hypersensitivity, von Frey filament testing ([1]; four cycles 35 mg/kg PTX, 0.5 mg/kg 4-AP daily i.p. weeks 1-12): ameliorated PTX-induced mechanical hypersensitivity
- mitochondrial health by mitochondrial structure ([1]; repetitive exposure to chemotherapy, 0.5 mg/kg 4-AP daily): improves mitochondrial health
- mechanical hypersensitivity, von Frey filament testing ([2]; 0.5 mg/kg 4-AP daily i.p. started at week 6): benefits of 4-AP treatment began to be observed at Week 12
- gait abnormalities, Catwalk analyses [2, 11]: reversed PTX-induced gait abnormalities
- jumping behavior, cold-plate stimulus [2, 11]: reversed the symptoms of hypersensitivity to thermal stimuli
- nerve conduction (latency, amplitude, velocity) [2, 11]: reversed PTX-induced abnormalities in nerve conduction
- structural myelin abnormalities indicative of myelin degeneration [2, 11]: reversed PTX-induced structural myelin abnormalities
- protection of cancer cells from PTX ([3]; 5 days exposure to PTX in vitro, concurrent 4-AP (1 mM)): did not protect
- sensitivity of cancer cells to paclitaxel ([3]; 5 days, 1 mM 4-AP): appears to even increase sensitivity to low doses of paclitaxel
- PTX-induced changes in kidney function (inferred from 4-AP renal clearance) ([4]; PTX day 0, 4-AP daily): prevented PTX-induced changes in kidney function
- circulating 4-AP levels, 4-AP alone versus 4-AP+PTX ([4]; day 3 or day 7, 1 hour after i.p. injection): did not differ
- Circulating 4-AP levels, Amount [4, 12]: 0.393 µM and 0.376 µM and 0.486 µM and 0.427 µM
- Circulating 4-AP levels, Amount ([4]; mice treated with 4-AP only, 7 day 1st draw): 0.376 µM and 0.246 µM and 0.293 µM and 0.140 µM and 0.337 µM
- Circulating 4-AP levels, Amount ([4]; mice treated with PTX + 4-AP, 3 days post): 0.721 µM and 0.504 µM and 0.312 µM and 0.321 µM and 0.277 µM
- Circulating 4-AP levels, Amount [4, 13]: 0.292 µM and 0.274 µM and 0.236 µM and 0.231 µM
- concentration at 1 h [4, 12]: 298 nM
- concentration at 1 h [4, 13]: 352 nM
- pain scores (McGill Pain Inventory questionnaire, visual analog scale) ([5]; 4-AP vs placebo, p=0.92): no difference
- nerve conduction velocity ([5]; Guillain-Barré patients): no clinically significant changes
- body weight ([6]; CIS 2.5 mg/kg once weekly i.p. for eight weeks): regained normal body weight
- hyperalgesia, Von Frey filament analysis ([6]; CIS eight weeks): restoration of normal levels of sensitivity
- nerve impulse amplitude ([6]; CIS eight weeks): also restored by 4-AP treatment
- nerve impulse velocity ([6]; CIS eight weeks): also restored by 4-AP treatment
- mechanical allodynia, Von Frey filament testing ([7]; four 35 mg/kg PTX i.p. at three-week intervals): no changes from baseline in their response
- amplitude and velocity of nerve impulse conduction ([7]; four 35 mg/kg PTX): prevented the development of these changes
- loss of cold sensitivity, paw lifts and hind paw licks on cold plate ([7]; four 35 mg/kg PTX): prevented the development of these changes
- sensitivity to cold, jumps off cold plate ([7]; four 35 mg/kg PTX): no changes from baseline in this parameter
- PTX-induced increased expression of GFAP, corpus callosum [8]: greatly reduced
